Laboratory results from PMC8047729, “Identification of a nanomolar affinity α-synuclein fibril imaging probe by ultra-high throughput in silico screening” (Chemical Science, 2020).
“Also recorded” adds a separate entry of the source.

Assays:
[1] = molecular target: T1, αS fibrils (Homo sapiens, UniProt P37840); test: Photo-crosslinking assay with MALDI-MS of tryptic digest; format: binding; conditions: 100 μM crosslinker, 365 nm irradiation, trypsin digest MALDI-MS
Experimental: Photo-crosslinking assay. Aggregations of αS prepared as described above were transferred to a clear glass vial to assist in photo -crosslinking, and compounds ClX1, ClX2, or DMSO (as a vehicle control) were delivered to their respective vials (100 μM final concentrations). The resulting fibril-crosslinker or fibril-DMSO mixture was incubated for 1 h at 37 °C, and thereafter irradiated with long wave UV from a TLC lamp (365 nm) for 1 h. The irradiated fibrils were then boiled in SDS (25 mM final concentration), and subjected to CHCl3/MeOH precipitation to remove excess detergent and buffer as previously described.2 The translucent brown protein pellet was then resuspended in 40 μL of sterilized, Milli-Q water. At this point, the whole protein sample was subjected to MALDI-MS analuysis by spotting 1 μL of sample in 1μL of sinapic acid matrix, prepared as a saturated solution in a 50:50 mixture of ACN:H2O with 0.1% TFA. The remaining sample was digested using trypsin (Promega Corporation) at 37 °C overnight (50 mM NH4CO3, 1 mM CaCl2, 1:50-1:100 protein:trypsin ratio). The resulting tryptic peptide mixture was diluted 1:10 in sterile water with 0.1% TFA, and analyzed via MALDI-MS by spotting 1 μL of sample in 1 μL of CHCA matrix or DHB matrix, prepared as saturated solutions in a 50:50 mixture of ACN:H2O with 0.1% TFA. […]

[2] = molecular target: αS fibrils in mouse brain lysate (Homo sapiens, UniProt P37840); test: Photo-crosslinking and click labeling in mouse brain lysate; format: binding; conditions: 50 μM CLX2, 50 μM αS fibrils, 10 mg/ml lysate
Text: Photo-crosslinking in Mouse Brain Lysate
Total Mouse Brain Protein Preparation. Mice were anesthetized using isoflurane gas in a closed chamber (AKORN, Lake Forest, IL, USA) followed by cervical dislocation. Brains were quickly dissected and snap-frozen in dry ice. Mouse brains were mechanically homogenized in five -fold excess (w/w) RIPA buffer (Thermo Fisher Scientific; Waltham, MA, USA ) using a ground glass tissue plunger. Homogenized sample was then subjected to probe sonication (Qsonica, Newtown, CT, USA) on ice using a microtip, at an amplitude of 50% at intervals of 10 s on 20 s off, for a total process-time (on-time) of 5 minutes. Crude lysate was then clarified by centrifugation at 10,000xg at 4 °C for 60 min. […] The lysate total protein concentration was then determined using the Bio-Rad detergent compatible (DC) protein assay […]
samples (50 µM final concentration), followed by “click -mix” (50 µM copper sulfate, 100 µM THPTA final concentration), sodium ascorbate (200 µM final concentration), and PBS to achieve a final volume of 200 µL. […] Samples were then analyzed via SDS-PAGE using a 4-12% Bis-Tris pre-cast gel (NuPAGE, Thermo Fisher Scientific). αS monomer labeled with BODIPY-FL maleimide (prepared as previously described13) was used as a control. […]

[3] = tested on: A53T and control mouse brain sections; format: binding
[4] = molecular target: Aβ42 fibrils (Homo sapiens, UniProt P05067)
[5] = molecular target: T1, αS fibrils

Aβ42 fibrils, sequence (P05067 672-713 limits assumed): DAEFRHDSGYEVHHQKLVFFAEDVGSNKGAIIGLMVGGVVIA

Crosslinked site / peptide fragment on αS fibrils [1] | Structure (SMILES) | Binding by crosslinking and fluorescent azide labeling in mouse brain lysate [2] | Autoradiography signal in whole brain sections [3] | Kd [4] | Kd [5] | Levels of non-specific binding ([5]; saturation binding experiments)
residues 22-34; also recorded: Site 2 | C#CCCC1(CCOc2ccc(OCC(=O)Nc3cc(-c4ccc(I)cc4)no3)cc2)N=N1 [ClX2] | binding to αS fibrils, but also to many other proteins in mouse brain lysate | – | – | – | –
– | Cc1ccc(OCC(=O)Nc2cc(-c3ccc([125I])cc3)no2)cc1C [[^125I]61] | – | increased signal in A53T mouse brain in αS-rich regions compared with the control | 4.56 nM | 1.06 nM | relatively high
